Measured values taken from patent US9273057B2 (Bristol-Myers Squibb Company, priority 2012, dated 2016).

target: CK2A1 (CK2α/β) (Homo sapiens, UniProt P68400); assay: CK2 kinase assay, CK2A1 (CK2α/β); assay type: biochemical; details: Table A; read-out: CK2A1 (CK2α/β) (IC50)
Sequence (P68400 whole entry, species assumed): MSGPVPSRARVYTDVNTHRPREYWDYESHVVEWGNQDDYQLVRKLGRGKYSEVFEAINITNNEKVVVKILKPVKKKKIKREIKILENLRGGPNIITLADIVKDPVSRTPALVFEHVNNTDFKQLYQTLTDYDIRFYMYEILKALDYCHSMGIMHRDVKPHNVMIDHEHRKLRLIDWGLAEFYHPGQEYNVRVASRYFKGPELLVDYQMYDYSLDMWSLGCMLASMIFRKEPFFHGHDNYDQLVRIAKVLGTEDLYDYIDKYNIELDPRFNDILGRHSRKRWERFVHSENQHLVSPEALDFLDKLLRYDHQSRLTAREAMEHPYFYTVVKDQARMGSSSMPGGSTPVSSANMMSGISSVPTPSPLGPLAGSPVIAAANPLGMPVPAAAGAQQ
Sequence (P67870 whole entry partner, species assumed): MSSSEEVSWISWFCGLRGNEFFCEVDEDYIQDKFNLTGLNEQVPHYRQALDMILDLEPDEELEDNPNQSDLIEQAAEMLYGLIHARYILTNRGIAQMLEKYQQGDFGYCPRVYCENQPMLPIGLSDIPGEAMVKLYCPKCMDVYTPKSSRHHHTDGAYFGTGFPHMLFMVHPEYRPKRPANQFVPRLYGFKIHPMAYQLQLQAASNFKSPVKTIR

Row | IC50 | SMILES
1 | 6610 pM | CC(O)CN1CC2(CCN(c3cc(C#N)cc(Nc4nc(NC5CC5)c5ncc(C#N)n5n4)c3Cl)CC2)C1 (racemic) [Example 797, (+/−)-2-((2-chloro-5-cyano-3-(2-(2-hydroxypropyl)-2,7-diazaspiro[3.5]nonan-7-yl)phenyl)amino)-4-(cyclopropylamino)imidazo[2,1-f][1,2,4]triazine-7-carbonitrile]
2 | 2490 pM | N#Cc1cc(Nc2nc(NC3CC3)c3ncc(C#N)n3n2)c(Cl)c(N2CCC[C@@H](N)C2)c1 [Example 40, (R)-2-(3-(3-aminopiperidin-1-yl)-2-chloro-5-cyanophenylamino)-4-(cyclopropylamino)imidazo [1,2-f][1,2,4]triazine-7-carbonitrile]
3 | 790 pM | CN1CC(N2CCN(c3cc(C#N)cc(Nc4nc(NC5CC5)c5ncc(C#N)n5n4)c3Cl)CC2)C1 [Example 72, 2-((2-chloro-5-cyano-3-(4-(1-methyl-3-azetidinyl)-1-piperazinyl)phenyl)amino)-4-(cyclopropylamino) imidazo[2,1-f][1,2,4] triazine-7-carbonitrile]
4 | 1280 pM | CCNc1nc(Nc2cc(C#N)cc(N3CCN(CC(C)O)CC3)c2Cl)nn2c(C#N)cnc12 (stereo in doubt) [Example 429, 2-((2-chloro-5-cyano-3-(4-((2R)-2-hydroxypropyl)-1-piperazinyl)phenyl)amino)-4-(ethylamino)imidazo[2,1-f][1,2,4]triazine-7-carbonitrile]
5 | 4070 pM | N#Cc1cc(Nc2nc(NC3CC3)c3ncc(C#N)n3n2)c(Cl)c(N2CCN(C3CN(S(=O)(=O)C4CC4)C3)CC2)c1 [Example 504, 2-[(2-chloro-5-cyano-3-{4-[1-(cyclopropanesulfonyl)azetidin-3-yl]piperazin-1-yl}phenyl)amino]-4-(cyclopropylamino)imidazo[2,1-f][1,2,4]triazine-7-carbonitrile]
6 | 320 pM | CC(O)(CO)c1cc(C#N)cc(Nc2nc(NC3CC3)c3ncc(C#N)n3n2)c1Cl (racemic) [Example 682, (+/−)-2-((2-chloro-5-cyano-3-(1,2-dihydroxypropan-2-yl)phenyl)amino)-4-(cyclopropylamino)imidazo[2,1-f][1,2,4]triazine-7-carbonitrile]
7 | 5370 pM | N#Cc1cnc2c(NC3CC3)nc(Nc3cc(OC(F)F)cc(N4CCNCC4)c3Cl)nn12 [Example 558, 2-((2-chloro-5-(difluoromethoxy)-3-(piperazin-1-yl)phenyl)amino)-4-(cyclopropylamino)imidazo[2,1-f][1,2,4]triazine-7-carbonitrile]
8 | 1740 pM | CC(C)(CO)NCc1cc(C#N)cc(Nc2nc(NC3CC3)c3ncc(C#N)n3n2)c1Cl [Example 674, 2-((2-chloro-5-cyano-3-(((1-hydroxy-2-methylpropan-2-yl)amino)methyl)phenyl)amino)-4-(cyclopropylamino)imidazo[2,1-f][1,2,4]triazine-7-carbonitrile]
9 | 780 pM | N#Cc1cc(Nc2nc(NC3CC3)c3ncc(C#N)n3n2)c(Cl)c(C2CCN(C(=O)C3CC3)CC2)c1 [Example 236, 2-((2-chloro-5-cyano-3-(1-(cyclopropylcarbonyl)-4-piperidinyl)phenyl)amino)-4-(cyclopropylamino)imidazo[2,1-f][1,2,4]triazine-7-carbonitrile]
10 | 700 pM | N#Cc1cc(Nc2nc(NC3CC3)c3ncc(C#N)n3n2)c(Cl)c(C2CCN(CC(N)=O)CC2)c1 [Example 220, 2-[4-(2-chloro-5-cyano-3-{[7-cyano-4-(cyclopropylamino)imidazo[2,1-f][1,2,4]triazin-2-yl]amino}phenyl)piperidin-1-yl]acetamide]
11 | 630 pM | CN1CCC2(CCN(c3cc(C#N)cc(Nc4nc(NC5CC5)c5ncc(C#N)n5n4)c3Cl)CC2)C1=O (racemic) [Example 779, (+/−)-2-((2-chloro-5-cyano-3-(2-methyl-1-oxo-2,8-diazaspiro[4.5]decan-8-yl)phenyl)amino)-4-(cyclopropylamino)imidazo[2,1-f][1,2,4]triazine-7-carbonitrile]
12 | 350 pM | CCNc1nc(Nc2cc(C#N)cc(N3CC[C@H]4NC(=O)CO[C@@H]4C3)c2Cl)nn2c(C#N)cnc12 (racemic) [Example 370, (+/−)-2-((2-chloro-5-cyano-3-((4aR,8aR)-2-oxohexahydro-1H-pyrido[3,4-b][1,4]oxazin-6(7H)-yl)phenyl)amino)-4-(ethylamino)imidazo[2,1-f][1,2,4]triazine-7-carbonitrile]
13 | 760 pM | CN1CCN(Cc2cc(C#N)cc(Nc3nc(NC4CC4)c4ncc(C#N)n4n3)c2Cl)CC1 [Example 670, 2-((2-chloro-5-cyano-3-((4-methylpiperazin-1-yl)methyl)phenyl)amino)-4-(cyclopropylamino)imidazo[2,1-f][1,2,4]triazine-7-carbonitrile]
14 | 570 pM | CC(=O)N1CCN(C2CN(c3cc(C#N)cc(Nc4nc(NC5CC5)c5ncc(C#N)n5n4)c3Cl)C2)CC1 [Example 541, 2-((3-(3-(4-acetylpiperazin-1-yl)azetidin-1-yl)-2-chloro-5-cyanophenyl)amino)-4-(cyclopropylamino)imidazo[2,1-f][1,2,4]triazine-7-carbonitrile]
15 | 1150 pM | N#Cc1cnc2c(NC3CC3)nc(Nc3cc(OC(F)F)cc(N4CCN(C5CNC5)CC4)c3Cl)nn12 [Example 560, 2-((3-(4-(azetidin-3-yl)piperazin-1-yl)-2-chloro-5-(difluoromethoxy)phenyl)amino)-4-(cyclopropylamino)imidazo[2,1-f][1,2,4]triazine-7-carbonitrile]
16 | 400 pM | N#Cc1cc(Nc2nc(NC3CC3)c3ncc(C#N)n3n2)c(Cl)c(N2CCN(CC(=O)NS(=O)(=O)C3CC3)CC2)c1 [Example 599, 2-[4-(2-chloro-5-cyano-3-{[7-cyano-4-(cyclopropylamino)imidazo [2,1-f][1,2,4]triazin-2-yl]amino}phenyl)piperazin-1-yl]-N-(cyclopropanesulfonyl) acetamide]
17 | 3400 pM | CC1(O)CCN(CC(O)c2cc(C#N)cc(Nc3nc(NC4CC4)c4ncc(C#N)n4n3)c2Cl)CC1 (stereo not shown) [Example 690, 2-((2-chloro-5-cyano-3-(1-hydroxy-2-(4-hydroxy-4-methylpiperidin-1-yl)ethyl)phenyl)amino)-4-(cyclopropylamino)imidazo[2,1-f][1,2,4]triazine-7-carbonitrile]
18 | 1230 pM | CN[C@@H]1CCC[C@H](c2cc(C#N)cc(Nc3nc(NC4CC4)c4ncc(C#N)n4n3)c2Cl)C1 [Example 727, 2-({2-chloro-5-cyano-3-[(1S,3R)-3-(methylamino)cyclohexyl]phenyl}amino)-4-(cyclopropylamino)imidazo [2,1-f][1,2,4]triazine-7-carbonitrile]
19 | 570 pM | CC(=O)N1CCN(c2cc(C#N)cc(Nc3nc(NC4CC4)c4ncc(C#N)n4n3)c2Cl)CC1 [Example 85, 2-((3-(4-acetyl-1-piperazinyl)-2-chloro-5-cyanophenyl)amino)-4-(cyclopropylamino) imidazo[2,1-fl][1,2,4] triazine-7-carbonitrile]
20 | 1300 pM | CN1CCN(CC(O)c2cc(C#N)cc(Nc3nc(NC4CC4)c4ncc(C#N)n4n3)c2Cl)CC1 (stereo not shown) [Example 686, 2-((2-chloro-5-cyano-3-(1-hydroxy-2-(4-methylpiperazin-1-yl)ethyl)phenyl)amino)-4-(cyclopropylamino)imidazo[2,1-f][1,2,4]triazine-7-carbonitrile]
21 | 490 pM | COC(=O)N[C@H]1CN(C2CN(c3cc(C#N)cc(Nc4nc(NC5CC5)c5ncc(C#N)n5n4)c3Cl)C2)CC1OC (stereo in doubt) [Example 298, methyl ((3S,4R)-1-(1-(2-chloro-5-cyano-3-((7-cyano-4-(cyclopropylamino)imidazo[2,1-f][1,2,4]triazin-2-yl)amino)phenyl)-3-azetidinyl)-4-methoxy-3-pyrrolidinyl)carbamate]
22 | 3200 pM | N#Cc1cc(Nc2nc(NC3CC3)c3ncc(C#N)n3n2)c(Cl)c(N2CCN(C3CN(C(=O)CC(N)=O)C3)CC2)c1 [Example 519, 3-{3-[4-(2-chloro-5-cyano-3-{[7-cyano-4-(cyclopropylamino)imidazo[2,1-f][1,2,4]triazin-2-yl]amino}phenyl)piperazin-1-yl]azetidin-1-yl}-3-oxopropanamide]
23 | 1010 pM | CN1CCC(O)(c2cc(C#N)cc(Nc3nc(NC4CC4)c4ncc(C#N)n4n3)c2Cl)CC1 [Example 649, 2-((2-chloro-5-cyano-3-(4-hydroxy-1-methylpiperidin-4-yl)phenyl)amino)-4-(cyclopropylamino)imidazo[2,1-f][1,2,4]triazine-7-carbonitrile]
24 | 730 pM | CCNc1nc(Nc2cc(C#N)cc(N3CC(N4CCN(C)CC4)C3)c2Cl)nn2c(C#N)cnc12 [Example 360, 2-((2-chloro-5-cyano-3-(3-(4-methylpiperazin-1-yl)azetidin-1-yl)phenyl)amino)-4-(ethylamino)imidazo[2,1-f][1,2,4]triazine-7-carbonitrile]
25 | 940 pM | CCNc1nc(Nc2cc(C#N)cc(N3CC[C@@H]4[C@@H](C3)OCCN4C(=O)OC)c2Cl)nn2c(C#N)cnc12 (racemic) [Example 372, (+/−)-(4aR,8aR)-methyl 6-(2-chloro-5-cyano-3-((7-cyano-4-(ethylamino)imidazo[2,1-f][1,2,4]triazin-2-yl)amino)phenyl)octahydro-1H-pyrido[3,4-b][1,4]oxazine-1-carboxylate]
26 | 5900 pM | N#Cc1cc(Nc2nc(NC3CC3)c3ncc(C#N)n3n2)c(Cl)c(N2CCN(C3CCS(=O)(=O)C3)CC2)c1 (stereo not shown) [Example 582, 2-({2-chloro-5-cyano-3-[4-(1,1-dioxo-1λ^6-thiolan-3-yl)piperazin-1-yl]phenyl}amino)-4-(cyclopropylamino)imidazo [2,1-f][1,2,4]triazine-7-carbonitrile]
27 | 4050 pM | CCNc1nc(-n2cc([C@H]3C[C@@H]3CN(C)C)c3ccc(C#N)cc32)nn2c(C#N)cnc12 (single isomer, unassigned) [Example 774]

Row | SMILES | IC50
28 | COC(=O)N[C@H]1CCN(c2cc(C#N)cc(Nc3nc(NC4CC4)c4ncc(C#N)n4n3)c2Cl)C[C@@H]1OC(=O)Cc1ccc(OP(=O)(O)O)cc1 [Example 199, (3S,4S)-1-(2-chloro-5-cyano-3-((7-cyano-4-(cyclopropylamino)imidazo[2,1-f][1,2,4]triazin-2-yl)amino)phenyl)-4-((methoxycarbonyl)amino)-3-piperidinyl (4-(phosphonooxy)phenyl)acetate] | 450 pM
